Experimental data taken from patent US20240277693A1, “A PHARMACEUTICAL PRODUCT CONTAINING TASQUINIMOD AND A METHOD FOR ASSESSING THE PURITY OF SAID PRODUCT” (ACTIVE BIOTECH AB, priority 2021, published 2024).

Legend:
Format in all cases: physicochemical
[1] = Assessment of capsules after manufacture: amount of tasquinimod and of decomposition products; conditions: 0 months (after manufacturing)
Source text: (§1) In some embodiments, the method disclosed herein comprises storing (keeping) a sample of the pharmaceutical product for a period of time, preferably under selected conditions of temperature and humidity. The amount (or concentration) of tasquinimod and of at least one of compounds I, II, III and IV in the sample may preferably be determined at the beginning or before the storage period and at the end of the storage period. The selected storage conditions may include a temperature in the range of, for example, 20° C. to 40° C., and a relative humidity in the surrounding atmosphere in the range of, for example, 30% to 75%; e.g. 25° C. and 60% RH, or 30° C. and 65% RH, or 35° C. and 70% RH, or 40° C. and 75% RH. The storage period may extend over a time period in the range of, for example, several weeks to several years. For example, the stability testing period (“storage period”) may be 2 weeks, 3 weeks, 1 month, 2 months, 3 months, 4 months, 5 months, 6 months, 9 months, 1 year, 18 months, 2 years, 3 years, 4 years or even 5 years or longer. A shorter storage period may be selected by use of higher storage temperature and/or higher relative humidity (RH). The total amount of a tasquinimod decomposition product in the sample at the end of the storage period may be determined by, for example, HPLC.
The obtained batch of capsules was assessed by determining the amount of tasquinimod and the amount of compound III in a sample of the capsules. The selected criterion for approving the batch was that the capsules of the sample contain not more than 1.0% w/w of compound III relative to the amount of tasquinimod. […] Therefore, according to the selected criterion for approval, the batch of capsules was determined to be suitable for distribution.
The obtained batch of capsules was assessed by determining the amount of tasquinimod and the amount of compounds I, II, III and IV in a sample of the capsules. The selected criterion for approving the batch was that the capsules of the sample contain not more than in total 5% w/w of compounds I-IV relative to the amount of tasquinimod. […] Therefore, according to the selected criterion for approval, the batch of capsules was determined to be suitable for distribution.
(§2) The obtained batch of capsules was subjected to multiple assessments, viz. a first assessment comprising determining the amount of tasquinimod and the amount of compounds I, II, III and IV in a sample of the capsules directly after manufacturing, whereby the selected criterion for approving the batch for distribution was that the capsules of the sample, in a water impermeable blister pack, contain not more than in total 5% w/w of compounds I-IV relative to the amount of tasquinimod, followed by eight further, independent assessments, by determining the amount of tasquinimod and the amount of each one of compounds I, II, III and IV in a sample of the capsules at the end of a period of stability testing (by keeping the capsules, in a water impermeable blister pack, at 25° C./60% RH) of 3, 6, 9, 12, 18, 24, 36 and 48 months, respectively, whereby each time the criterion for approving the batch was that the capsules of the sample, at the end of each period of stability testing, contain a total amount of compounds I-IV of not more than 5.0% w/w, relative to the amount of tasquinimod in the capsules.

[2] = Stability testing of capsules at 25° C./60% RH in water impermeable blister pack
Source text: as §1
The batch of capsules manufactured in Example 19 was assessed by determining the amount of tasquinimod and the amount of each one of compounds I, II, III and IV in a sample of the capsules at the end of a 3-month stability testing, whereby the criterion for approving the batch was that the capsules of the sample, at the end of the 3-month stability testing, contain a total amount of compounds I-IV of not more than 5.0% w/w, relative to the amount of tasquinimod in the capsules. The stability testing consisted of keeping the capsules, in a water impermeable blister pack, at 25° C./60% RH. At the end of the stability testing, the capsules contained 0.06% w/w of compound I, less than 0.05% w/w of compound II, 0.10% of compound III and less than 0.05% w/w of compound IV, relative to the amount of tasquinimod (determined to be 0.246 mg/capsule), viz. in total less than 0.26% w/w of compounds I-IV relative to the amount of tasquinimod. Therefore, according to the selected criterion for approval, the batch of capsules was determined to be suitable for distribution.
as §2

[3] = Drug product stability studies (general observations)
Source text: In a drug product, compound I is formed with compound II from hydrolysis of tasquinimod. […] Compound II is further decarboxylated to form compound III.
Compound III is the decarboxylated species formed from the degradation of compound II.
The mechanism for formation of compound IV in a drug product is unknown.

[4] = 0.25 mg capsules of Example 19, 18 months
[5] = 0.25 mg capsules of Example 19, 24 months
[6] = 0.25 mg capsules of Example 19, 36 months
[7] = 0.25 mg capsules of Example 19, 48 months
[8] = 0.5 mg capsules of Example 28, 3 months
[9] = 0.5 mg capsules of Example 28, 6 months
[10] = 0.5 mg capsules of Example 28, 9 months
[11] = 0.5 mg capsules of Example 28, 12 months
[12] = 0.5 mg capsules of Example 28, 18 months
[13] = 0.5 mg capsules of Example 28, 24 months
[14] = 0.5 mg capsules of Example 28, 36 months
[15] = 0.5 mg capsules of Example 28, 48 months
[16] = 1.0 mg capsules of Example 29, 3 months
[17] = 1.0 mg capsules of Example 29, 6 months
[18] = 1.0 mg capsules of Example 29, 9 months
[19] = 1.0 mg capsules of Example 29, 12 months
[20] = 1.0 mg capsules of Example 29, 18 months
[21] = 1.0 mg capsules of Example 29, 24 months
[22] = 1.0 mg capsules of Example 29, 36 months
[23] = 1.0 mg capsules of Example 29, 48 months

| Decomposition products (% w/w), relative to the amount of tasquinimod in capsule ([1]; 0.5 mg capsules of Example 28) | Decomposition products (% w/w), relative to the amount of tasquinimod in capsule ([1]; 1.0 mg capsules of Example 29) | amount of decomposition product (each of compounds I-IV) in capsules, relative to the amount of tasquinimod [2, 4] | amount of decomposition product (each of compounds I-IV) in capsules, relative to the amount of tasquinimod [2, 5] | amount of decomposition product (each of compounds I-IV) in capsules, relative to the amount of tasquinimod [2, 6] | amount of decomposition product (each of compounds I-IV) in capsules, relative to the amount of tasquinimod [2, 7] | Decomposition products (% w/w), relative to the amount of tasquinimod in capsule [2, 8] | Decomposition products (% w/w), relative to the amount of tasquinimod in capsule [2, 9] | Decomposition products (% w/w), relative to the amount of tasquinimod in capsule [2, 10] | Decomposition products (% w/w), relative to the amount of tasquinimod in capsule [2, 11] | Decomposition products (% w/w), relative to the amount of tasquinimod in capsule [2, 12] | Decomposition products (% w/w), relative to the amount of tasquinimod in capsule [2, 13] | Decomposition products (% w/w), relative to the amount of tasquinimod in capsule [2, 14] | Decomposition products (% w/w), relative to the amount of tasquinimod in capsule [2, 15] | Decomposition products (% w/w), relative to the amount of tasquinimod in capsule [2, 16] | Decomposition products (% w/w), relative to the amount of tasquinimod in capsule [2, 17] | Decomposition products (% w/w), relative to the amount of tasquinimod in capsule [2, 18] | Decomposition products (% w/w), relative to the amount of tasquinimod in capsule [2, 19] | Decomposition products (% w/w), relative to the amount of tasquinimod in capsule [2, 20] | Decomposition products (% w/w), relative to the amount of tasquinimod in capsule [2, 21] | Structure (SMILES) | other results |
| --- | --- | --- | --- | --- | --- | --- | --- | --- | --- | --- | --- | --- | --- | --- | --- | --- | --- | --- | --- | --- | --- |
| <0.05 % w/w | <0.05 % w/w | 0.05 % w/w | 0.05 % w/w | 0.06 % w/w | 0.06 % w/w | <0.05 % w/w | <0.05 % w/w | <0.05 % w/w | <0.05 % w/w | <0.05 % w/w | <0.05 % w/w | <0.05 % w/w | <0.05 % w/w | <0.05 % w/w | <0.05 % w/w | 0.06 % w/w | 0.06 % w/w | 0.06 % w/w | 0.06 % w/w | COc1cccc2c1c(O)c(C(=O)O)c(=O)n2C [Compound II, 4-hydroxy-5-methoxy-1-methyl-2-oxo-1,2-dihydroquinoline-3-carboxylic acid] | Decomposition products (% w/w), relative to the amount of tasquinimod in capsule [2, 22]: 0.07 % w/w; Decomposition products (% w/w), relative to the amount of tasquinimod in capsule [2, 23]: 0.08 % w/w; change of the amount of the compound in tasquinimod drug product on storage [3]: slight increase |
| <0.05 % w/w | <0.05 % w/w | 0.07 % w/w | 0.10 % w/w | 0.15 % w/w | 0.19 % w/w | <0.05 % w/w | <0.05 % w/w | <0.05 % w/w | <0.05 % w/w | <0.05 % w/w | 0.06 % w/w | 0.09 % w/w | 0.11 % w/w | <0.05 % w/w | <0.05 % w/w | <0.05 % w/w | <0.05 % w/w | <0.05 % w/w | <0.05 % w/w | COc1cccc2c1c(O)c(Cc1c(O)c3c(OC)cccc3n(C)c1=O)c(=O)n2C [Compound IV, 3,3′-methylenebis(4-hydroxy-5-methoxy-1-methylquinolin-2(1H)-one)] | Decomposition products (% w/w), relative to the amount of tasquinimod in capsule [2, 22]: <0.05 % w/w; Decomposition products (% w/w), relative to the amount of tasquinimod in capsule [2, 23]: <0.05 % w/w; change of the amount of the compound in tasquinimod drug product on storage [3]: increase under accelerated conditions |
| <0.05 % w/w | <0.05 % w/w | 0.10 % w/w | 0.13 % w/w | 0.16 % w/w | 0.16 % w/w | <0.05 % w/w | 0.05 % w/w | 0.06 % w/w | 0.07 % w/w | 0.06 % w/w | 0.07 % w/w | 0.07 % w/w | 0.08 % w/w | <0.05 % w/w | <0.05 % w/w | <0.05 % w/w | <0.05 % w/w | <0.05 % w/w | <0.05 % w/w | CNc1ccc(C(F)(F)F)cc1 [Compound I, N-methyl-4-(trifluoromethyl)aniline] | amount of decomposition product (each of compounds I-IV) in capsules, relative to the amount of tasquinimod ([2]; 0.25 mg capsules of Example 19, 3 months): 0.06 % w/w; amount of decomposition product (each of compounds I-IV) in capsules, relative to the amount of tasquinimod ([2]; 0.25 mg capsules of Example 19, 6 months): 0.08 % w/w; amount of decomposition product (each of compounds I-IV) in capsules, relative to the amount of tasquinimod ([2]; 0.25 mg capsules of Example 19, 9 months): 0.12 % w/w; amount of decomposition product (each of compounds I-IV) in capsules, relative to the amount of tasquinimod ([2]; 0.25 mg capsules of Example 19, 12 months): 0.11 % w/w; Decomposition products (% w/w), relative to the amount of tasquinimod in capsule [2, 22]: <0.05 % w/w; Decomposition products (% w/w), relative to the amount of tasquinimod in capsule [2, 23]: <0.05 % w/w; change of the amount of the compound in tasquinimod drug product on storage [3]: increase under any storage conditions |
